Activity calls are given as the source filed them.
Assays:
Type in all cases: functional
[1] = target: T1, Sentrin-specific protease 8 (Homo sapiens, UniProt Q96LD8);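 further: kinetic enzyme assay of SENP8 cleaving a Nedd8 protein substrate, dose-response confirmation of screening hits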
T1 sequence (Q96LD8 whole entry): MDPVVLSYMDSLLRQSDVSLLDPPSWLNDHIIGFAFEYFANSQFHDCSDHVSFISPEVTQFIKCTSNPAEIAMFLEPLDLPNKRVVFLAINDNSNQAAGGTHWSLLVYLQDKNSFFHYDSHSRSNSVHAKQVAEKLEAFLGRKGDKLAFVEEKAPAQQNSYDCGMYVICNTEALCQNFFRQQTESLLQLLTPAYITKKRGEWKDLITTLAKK

[2] = target: MAP kinase-activated protein kinase 5 (Homo sapiens, UniProt Q8IW41);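 further: measured as one member of a kinome panel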
[3] = target: MAP kinase-interacting serine/threonine-protein kinase 2 (Homo sapiens, UniProt Q9HBH9)
[4] = target: Tyrosine-protein kinase ABL1 (Homo sapiens, UniProt P00519)
[5] = target: Protein-tyrosine kinase 6 (Homo sapiens, UniProt Q13882)
[6] = target: Testis-specific serine/threonine-protein kinase 1 (Homo sapiens, UniProt Q9BXA7)
[7] = target: Tyrosine-protein kinase Lck (Homo sapiens, UniProt P06239);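 further: lck was assayed as one member of a kinase panel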
[8] = target: Calcium/calmodulin-dependent protein kinase type II subunit beta (Homo sapiens, UniProt Q13554)
[9] = target: Eukaryotic elongation factor 2 kinase (Homo sapiens, UniProt O00418)
[10] = target: Vascular endothelial growth factor receptor 3 (Homo sapiens, UniProt P35916);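 further: value from a kinome-wide profiling panel, with FLT4 as the panel member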
Sequence of Vascular endothelial growth factor receptor 3 (P35916 whole entry): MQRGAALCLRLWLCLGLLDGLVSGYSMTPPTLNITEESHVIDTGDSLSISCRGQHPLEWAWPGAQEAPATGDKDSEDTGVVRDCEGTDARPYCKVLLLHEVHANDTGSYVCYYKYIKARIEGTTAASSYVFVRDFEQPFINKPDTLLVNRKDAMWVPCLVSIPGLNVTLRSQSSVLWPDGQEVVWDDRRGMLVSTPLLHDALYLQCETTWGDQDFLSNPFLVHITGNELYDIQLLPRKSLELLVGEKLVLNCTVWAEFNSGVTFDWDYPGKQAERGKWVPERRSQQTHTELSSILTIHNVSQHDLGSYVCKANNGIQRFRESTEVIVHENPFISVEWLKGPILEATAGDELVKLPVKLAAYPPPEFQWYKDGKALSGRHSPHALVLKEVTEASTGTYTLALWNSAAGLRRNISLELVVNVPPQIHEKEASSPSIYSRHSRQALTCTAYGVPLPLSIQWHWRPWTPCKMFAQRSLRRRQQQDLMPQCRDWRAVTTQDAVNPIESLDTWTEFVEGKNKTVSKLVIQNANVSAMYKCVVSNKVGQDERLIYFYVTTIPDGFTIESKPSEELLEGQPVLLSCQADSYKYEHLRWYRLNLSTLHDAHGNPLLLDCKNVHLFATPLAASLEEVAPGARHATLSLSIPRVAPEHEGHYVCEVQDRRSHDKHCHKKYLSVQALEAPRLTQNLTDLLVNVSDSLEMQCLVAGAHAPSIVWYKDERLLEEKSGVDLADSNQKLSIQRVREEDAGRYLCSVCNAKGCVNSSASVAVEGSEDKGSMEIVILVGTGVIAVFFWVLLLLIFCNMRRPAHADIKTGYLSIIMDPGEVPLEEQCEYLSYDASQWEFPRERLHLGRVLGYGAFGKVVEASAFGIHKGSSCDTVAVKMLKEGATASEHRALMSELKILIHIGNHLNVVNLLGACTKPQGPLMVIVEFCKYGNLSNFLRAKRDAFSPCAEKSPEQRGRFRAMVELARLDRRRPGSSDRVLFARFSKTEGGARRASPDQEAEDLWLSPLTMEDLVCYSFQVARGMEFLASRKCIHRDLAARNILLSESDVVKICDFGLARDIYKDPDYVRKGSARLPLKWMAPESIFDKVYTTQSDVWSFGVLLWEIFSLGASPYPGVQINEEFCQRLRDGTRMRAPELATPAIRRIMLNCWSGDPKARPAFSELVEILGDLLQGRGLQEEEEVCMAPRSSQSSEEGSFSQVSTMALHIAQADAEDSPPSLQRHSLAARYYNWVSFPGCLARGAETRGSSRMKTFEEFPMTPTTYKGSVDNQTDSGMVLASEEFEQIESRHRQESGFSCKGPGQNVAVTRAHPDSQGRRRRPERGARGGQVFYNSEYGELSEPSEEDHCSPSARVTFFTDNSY

Sequence of Calcium/calmodulin-dependent protein kinase type II subunit beta (Q13554 whole entry): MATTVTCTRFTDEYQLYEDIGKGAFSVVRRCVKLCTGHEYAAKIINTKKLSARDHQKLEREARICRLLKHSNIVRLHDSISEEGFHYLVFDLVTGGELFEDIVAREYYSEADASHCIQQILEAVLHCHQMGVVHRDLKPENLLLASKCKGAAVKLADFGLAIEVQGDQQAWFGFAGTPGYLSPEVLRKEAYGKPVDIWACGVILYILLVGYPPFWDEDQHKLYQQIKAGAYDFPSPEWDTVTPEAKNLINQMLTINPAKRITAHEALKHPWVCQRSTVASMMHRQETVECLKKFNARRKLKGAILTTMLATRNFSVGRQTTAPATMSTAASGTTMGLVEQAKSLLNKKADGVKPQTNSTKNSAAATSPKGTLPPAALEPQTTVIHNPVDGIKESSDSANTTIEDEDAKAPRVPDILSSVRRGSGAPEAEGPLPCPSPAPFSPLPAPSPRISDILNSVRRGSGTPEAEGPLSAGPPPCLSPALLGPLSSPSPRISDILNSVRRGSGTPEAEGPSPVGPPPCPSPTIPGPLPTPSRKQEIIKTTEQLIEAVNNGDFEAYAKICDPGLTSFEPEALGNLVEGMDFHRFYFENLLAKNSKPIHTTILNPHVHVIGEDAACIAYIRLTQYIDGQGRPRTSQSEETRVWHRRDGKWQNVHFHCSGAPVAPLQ
Sequence of Protein-tyrosine kinase 6 (Q13882 whole entry): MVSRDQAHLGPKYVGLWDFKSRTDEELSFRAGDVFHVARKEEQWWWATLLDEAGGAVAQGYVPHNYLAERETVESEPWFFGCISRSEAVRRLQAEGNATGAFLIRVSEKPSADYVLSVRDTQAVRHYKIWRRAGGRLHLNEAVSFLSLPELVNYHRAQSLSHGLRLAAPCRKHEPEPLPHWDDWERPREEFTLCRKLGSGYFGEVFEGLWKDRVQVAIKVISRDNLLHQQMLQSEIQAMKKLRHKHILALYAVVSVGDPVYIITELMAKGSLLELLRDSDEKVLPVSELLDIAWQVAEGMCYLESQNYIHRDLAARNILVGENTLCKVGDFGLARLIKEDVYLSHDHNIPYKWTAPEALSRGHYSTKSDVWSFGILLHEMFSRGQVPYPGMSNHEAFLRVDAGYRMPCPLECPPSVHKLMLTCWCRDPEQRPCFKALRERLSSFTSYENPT
Sequence of MAP kinase-activated protein kinase 5 (Q8IW41 whole entry): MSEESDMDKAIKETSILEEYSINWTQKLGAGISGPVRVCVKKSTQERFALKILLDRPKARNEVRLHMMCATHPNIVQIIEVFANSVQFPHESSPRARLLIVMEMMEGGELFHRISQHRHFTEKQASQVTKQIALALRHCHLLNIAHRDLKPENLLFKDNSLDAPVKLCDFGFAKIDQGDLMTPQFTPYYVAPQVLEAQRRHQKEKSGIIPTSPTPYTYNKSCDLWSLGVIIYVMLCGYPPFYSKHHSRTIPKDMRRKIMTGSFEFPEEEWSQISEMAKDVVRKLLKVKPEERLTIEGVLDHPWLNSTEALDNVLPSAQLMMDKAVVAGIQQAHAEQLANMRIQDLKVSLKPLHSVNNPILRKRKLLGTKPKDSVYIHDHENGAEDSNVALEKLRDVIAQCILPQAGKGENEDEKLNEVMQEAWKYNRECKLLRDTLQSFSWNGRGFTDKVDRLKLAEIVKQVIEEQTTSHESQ
Sequence of Tyrosine-protein kinase Lck (P06239 whole entry): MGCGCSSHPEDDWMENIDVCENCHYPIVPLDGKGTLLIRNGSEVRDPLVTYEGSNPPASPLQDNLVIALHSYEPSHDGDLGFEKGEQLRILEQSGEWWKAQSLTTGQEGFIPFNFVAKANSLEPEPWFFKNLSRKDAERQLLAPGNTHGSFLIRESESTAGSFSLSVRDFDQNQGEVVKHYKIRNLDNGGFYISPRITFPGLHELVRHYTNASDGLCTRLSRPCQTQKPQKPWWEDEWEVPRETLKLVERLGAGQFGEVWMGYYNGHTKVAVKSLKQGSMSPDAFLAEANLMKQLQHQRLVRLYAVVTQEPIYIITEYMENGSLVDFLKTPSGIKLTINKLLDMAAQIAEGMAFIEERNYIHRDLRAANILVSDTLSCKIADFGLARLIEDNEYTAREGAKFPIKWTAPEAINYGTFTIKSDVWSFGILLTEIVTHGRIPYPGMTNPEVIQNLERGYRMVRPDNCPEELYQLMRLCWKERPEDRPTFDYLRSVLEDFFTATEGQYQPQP
Sequence of Tyrosine-protein kinase ABL1 (P00519 whole entry): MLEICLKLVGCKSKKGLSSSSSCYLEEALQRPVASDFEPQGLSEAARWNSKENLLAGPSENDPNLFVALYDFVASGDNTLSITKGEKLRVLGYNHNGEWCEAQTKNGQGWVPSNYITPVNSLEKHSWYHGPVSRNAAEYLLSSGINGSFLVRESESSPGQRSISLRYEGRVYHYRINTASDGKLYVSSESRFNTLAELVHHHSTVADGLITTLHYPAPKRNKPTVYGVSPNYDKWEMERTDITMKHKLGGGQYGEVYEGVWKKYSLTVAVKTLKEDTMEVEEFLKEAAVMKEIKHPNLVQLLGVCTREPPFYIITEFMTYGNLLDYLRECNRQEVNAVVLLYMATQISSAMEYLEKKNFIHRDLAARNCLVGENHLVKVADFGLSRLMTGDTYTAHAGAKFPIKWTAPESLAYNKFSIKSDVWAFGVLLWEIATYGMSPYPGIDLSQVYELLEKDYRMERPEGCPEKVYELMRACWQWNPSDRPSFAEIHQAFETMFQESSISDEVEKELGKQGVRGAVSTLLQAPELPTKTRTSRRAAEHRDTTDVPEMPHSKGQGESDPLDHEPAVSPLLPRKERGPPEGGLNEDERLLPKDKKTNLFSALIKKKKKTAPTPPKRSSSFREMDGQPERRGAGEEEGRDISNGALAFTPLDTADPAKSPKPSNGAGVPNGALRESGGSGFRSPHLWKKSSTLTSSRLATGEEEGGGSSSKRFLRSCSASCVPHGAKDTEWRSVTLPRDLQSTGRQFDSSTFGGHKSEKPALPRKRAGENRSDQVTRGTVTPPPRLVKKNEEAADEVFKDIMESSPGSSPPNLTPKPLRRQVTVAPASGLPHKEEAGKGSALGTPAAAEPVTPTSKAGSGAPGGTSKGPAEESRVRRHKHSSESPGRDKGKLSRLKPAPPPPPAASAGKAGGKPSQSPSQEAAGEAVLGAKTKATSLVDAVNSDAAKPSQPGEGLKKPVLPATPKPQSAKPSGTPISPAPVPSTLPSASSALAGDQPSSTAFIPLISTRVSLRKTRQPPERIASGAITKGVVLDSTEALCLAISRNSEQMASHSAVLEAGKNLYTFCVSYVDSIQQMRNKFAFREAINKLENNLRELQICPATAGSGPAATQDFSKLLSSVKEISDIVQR
Sequence of Testis-specific serine/threonine-protein kinase 1 (Q9BXA7 whole entry): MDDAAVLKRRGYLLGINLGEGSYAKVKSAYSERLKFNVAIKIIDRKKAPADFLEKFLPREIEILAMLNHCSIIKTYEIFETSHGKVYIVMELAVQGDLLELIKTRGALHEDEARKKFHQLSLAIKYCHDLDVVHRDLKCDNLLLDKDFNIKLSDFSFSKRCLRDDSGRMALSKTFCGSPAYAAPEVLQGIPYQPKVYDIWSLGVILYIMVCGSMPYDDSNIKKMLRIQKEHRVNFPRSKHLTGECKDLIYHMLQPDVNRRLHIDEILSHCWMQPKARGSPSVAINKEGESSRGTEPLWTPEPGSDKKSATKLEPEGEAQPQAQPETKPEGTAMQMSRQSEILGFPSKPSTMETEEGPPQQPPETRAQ

SMILES: O=C1C2=[N+]([O-])[C@H]3CCCC[C@H]3[N+]([O-])=C2c2ccccc21
- IC50 [1]: 2680 nM (active)

SMILES: NC1CCC(Nc2nccc(-c3c[nH]c4ncccc34)n2)CC1 (stereo not given)
- Ki [2]: > 1580 nM (inactive)
- Ki [3]: 251 nM (active)
- Ki [4]: > 631 nM (inactive)
- Ki [5]: > 2510 nM (inactive)
- Ki [6]: 63.1 nM (active)

SMILES: OCc1cc(-c2ccc3[nH]ncc3c2)on1
- Ki [7]: 100000 nM (active)

SMILES: COC(C(=O)N1Cc2[nH]nc(NC(=O)c3ccc(N4CCN(C)CC4)cc3)c2C1)c1ccccc1 (stereo not given)
- Ki [8]: 7940 nM (active)
- Ki [9]: > 3980 nM (inactive)
- Ki [10]: 158 nM (active)

Source: ChEMBL document CHEMBL1201862, “PubChem BioAssay data set” (2004)
